Values quoted from earlier work as cited in patent US20240408074A1, “METHODS FOR THE TREATMENT AND PREVENTION OF NON-VIRAL TICK-BORNE DISEASES AND SYMPTOMS THEREOF OF” (60 DEGREES PHARMACEUTICALS LLC, priority 2023, published 2024).

How the values were obtained:
[1] = system: P. falciparum; details: 250 mg/day, cited from earlier work
[2] = system: Trypanosome brucei blood stage forms; details: exposure for 90 minutes; cited from earlier work
[3] = system: Leptospira; details: exposure for as little as 30 min; cited from earlier work
[4] = system: Babesia parasites; details: 2 h; formation of large vacuoles; cited from earlier work
[5] = system: P. falciparum gametocytes; details: Example 5; single dose of primaquine combined with dihydroartemisinin/piperaquine, or dihydroartemisinin-piperaquine alone; cited from earlier work
[6] = 600 mg over three days then 200 mg weekly for up to one year; reversible, not clinically significant; cited from earlier work
[7] = system: Trypanosoma brucei; details: extracellular blood stage forms; cited from earlier work
[8] = system: Plasmodium falciparum; details: 600 mg loading dose then 200 mg; parasite load three days after last dose; all control subjects developed parasitemia; cited from earlier work
[9] = system: B. microti; details: one patient; prior rituximab; tafenoquine at approved malaria prevention dose as monotherapy for six weeks; cited from earlier work
[10] = system: Plasmodium vivax; details: 400 mg/day for three days, cited from earlier work
[11] = system: free-living gram-negative bacteria and free-living gram-positive bacteria; details: gram-negative versus gram-positive; cited from earlier work
[12] = system: P. falciparum; details: in vivo; cited from earlier work
[13] = system: B. rodhaini; details: cited from earlier work
[14] = system: Leishmania major; details: intracellular amastigote forms; cited from earlier work
[15] = immunocompromised SCID mice, single dose of 20 mg/kg

## CC[C@H]1OC(=O)[C@H](C)[C@@H](O[C@H]2C[C@@](C)(OC)[C@@H](O)[C@H](C)O2)[C@H](C)[C@@H](O[C@@H]2O[C@H](C)C[C@H](N(C)C)[C@H]2O)[C@](C)(O)C[C@@H](C)CN(C)[C@H](C)[C@@H](O)[C@]1(C)O [Azithromycin]
[1]; non-immune or malaria-naïve (Taylor)
  Protective Efficacy (%) Relative to Placebo, PF/Non-immune or Malaria-naïve: 72% (Taylor)
[1]; semi-immune (Anderson)
  Protective Efficacy (%) Relative to Placebo, Pf/Semi-Immune: 83% (Anderson)

## OO [hydrogen peroxide]
[2]
  concentration that kills blood stage forms: approximately 140 microM
[3]
  concentration that killed various serovars: < 180 µM
[4]
  concentration that kills Babesia parasites in vitro: 100 µM

## COc1cc(NC(C)CCCN)c2ncccc2c1 (stereo not shown) [primaquine]
[5]
  time until gametocytes non-infectious to mosquitoes at a level statistically lower than reference values: two days post-dosing

## COc1cc(C)c2c(Oc3cccc(C(F)(F)F)c3)c(OC)cc(NC(C)CCCN)c2n1 (stereo not shown) [tafenoquine, N(4)-[2,6-Dimethoxy-4-methyl-5-[3-(trifluoromethyl)phenoxy]quinolin-8-yl]pentane-1,4-diamine]
[6]
  specific adverse events with increased risk: gastrointestinal effects [mild to moderate] and cornea verticillata
[7]
  potency of killing: < 4 µM
[8]
  subjects who developed blood stage parasitemia: none
[9]
  outcome of treatment in the patient: cured
[10]; monotherapy
  day by which all patients cleared blood stage parasites: ≤ 8 days
[10]; patients for whom data was available
  relapses during the follow up period: no relapses
[11]
  activity against free-living bacteria: much less active against free-living gram-negative bacteria than free-living gram-positive bacteria
[12]
  activity against the blood stages of P. falciparum: quite effective
[13]; Balb/c (immunocompetent) mice, single dose of 20 mg/kg
  parasitemia: cleared parasitemia
[13]; Balb/c (immunocompetent) mice, single dose of 20 mg/kg, infection uniformly lethal in untreated animals
  survival: 100%
[13]; [15]
  death: delayed not prevent
  parasitemia and relapses: cleared initial parasitemia but did not prevent relapses
[13]; mice, single dose of 20 mg/kg
  vacuole formation in B. rodhaini blood stages: induces the formation of large vacuoles
[13]; mice, single dose treatment
  antioxidant enzymes in B. rodhaini: upregulated
[13]; one and three doses, immunocompromised mice and dogs
  clearance and cure of Babesia: sufficient to clear and cure Babesia
[14]
  potency of killing: < 4 µM
